The values that follow come from patent US20240390316A1 (SHENZHEN TECHNOLOGY UNIVERSITY, priority 2022, published 2024).

Where a name gives a salt, the structure may show the parent alone.

Series [1] has as its system CVB1. Particulars: Coxsackievirus B type 1; CPE in vitro. As to the method:
72 hours later, the degree of a cytopathic effect was detected by an AlamarBlue fluorescent reagent, and an inhibition rate was calculated by using a formula.

The next series in a line: Vero cytotoxicity test. Particulars: African green monkey; Vero cells; mean ± standard deviation of three groups of parallel tests. Type of series: cell-based. As to the method: A cytotoxicity test of CVB1, CVB2 and CVB3 on Vero cells was carried out with three groups of parallel tests, respectively, and Table 1 was obtained.
Series [2] concerns enterovirus type 71 (BrCr/C4 subtype). Nature of the series: Antiviral activity against enterovirus type 71 (CPE in vitro). Type of series: cell-based. As to the method:
(§1) Test 3: In vitro anti-CVB1, anti-CVB2, anti-CVB3, anti-CVA16, anti-EV71 BrCr and anti-EV71-C2 virus models of Vero cells (cell quantity: 1.5×10^4 cells per well) were established, respectively. […] An inhibition rate and a standard deviation were measured by an AlamarBlue test in three parallel tests.

Series [3] concerns Coxsackievirus A (6/10/16 subtype). The series can be described thus: Antiviral activity against Coxsackievirus A (CPE in vitro). Type of series: cell-based. As to the method:
as §1

Another series concerns Coxsackievirus B. Nature of the series: Inhibition rate at 25 μM in virus-infected Vero cells (AlamarBlue). Type of series: cell-based. The settings on record: 72 hours, FIG. 3. As to the method: as §1
On the technique in general: The colour change of resazurin is a common sign of viable cells or microbes.

Series [4] has as its system CVB1. The series can be described thus: Progeny virus yield of CVB1 in Vero cells (supernatant titrated by plaque reduction test). Type of series: cell-based, Coxsackievirus B1 (CVB1). The settings on record: 0.02 MOI CVB1, Vero cells, 72 hours, FIG. 4c. As to the method: After culture for 72 hours, a supernatant was titrated by a plaque reduction test, and results were obtained from three groups of parallel tests.
Background: Plaques are areas of infected cells; plaque reduction assays count them against a control.

For series [5], the system named is CVB1. Nature of the series: Time process test (administration time after infection). Type of series: cell-based, Coxsackievirus B1 (CVB1). Particulars: different administration times, FIG. 5.
Another series concerns CVB2. The settings on record: Coxsackievirus B type 2; CPE in vitro.
For another series, the system named is CVB3. The settings on record: Coxsackievirus B type 3; CPE in vitro.

A word on the CC50: it is the concentration giving 50% cytotoxicity. `CN(C)CCC=C1c2ccccc2COc2ccccc21` [doxepin hydrochloride]: the “antiviral activity (in words)” value with CVB1 [1] is reported as “strong antiviral activity”; in [2], “does not have any antiviral activity”; in series [3] it was “does not have any antiviral activity”; in the series on CVB2 it was “strong antiviral activity”; in the series on CVB3, “strong antiviral activity”. This compound also gave a half-maximal cytotoxic concentration (CC50) in the series “Vero cytotoxicity test” of 90.7 ± 16.4 µM. The “activity spectrum from inhibition rate (in words)” value in the series with Coxsackievirus B is “broad-spectrum activity against Coxsackievirus B”. Further, the “progeny yield of CVB1 (in words)” value with CVB1 [4] is recorded as “inhibited the progeny yield of CVB1”. Moreover, the “stage of infection cycle inhibited (in words)” value with CVB1 [5] was “inhibits virus replication at an early stage of an infection cycle”.
